From US20250059182A1, “SOS1 INHIBITORS” (Mirati Therapeutics, Inc., priority 2021, published 2025)
Like-named read-outs stand apart in the source and are kept apart here.

Experiments:
[1] = molecular target: T1, recombinant human SOS1 polypeptide (amino acids 560-1049) (Homo sapiens, UniProt Q07889); assay: HTRF displacement assay: inhibition of labeled tracer binding to SOS1; conditions: Table A, Morrison equation for competitive binding
T1 construct: corresponding to amino acids 560-1049, expressed in E. Coli; made in house; host or cells: E. coli
T1 sequence (Q07889 560-1049): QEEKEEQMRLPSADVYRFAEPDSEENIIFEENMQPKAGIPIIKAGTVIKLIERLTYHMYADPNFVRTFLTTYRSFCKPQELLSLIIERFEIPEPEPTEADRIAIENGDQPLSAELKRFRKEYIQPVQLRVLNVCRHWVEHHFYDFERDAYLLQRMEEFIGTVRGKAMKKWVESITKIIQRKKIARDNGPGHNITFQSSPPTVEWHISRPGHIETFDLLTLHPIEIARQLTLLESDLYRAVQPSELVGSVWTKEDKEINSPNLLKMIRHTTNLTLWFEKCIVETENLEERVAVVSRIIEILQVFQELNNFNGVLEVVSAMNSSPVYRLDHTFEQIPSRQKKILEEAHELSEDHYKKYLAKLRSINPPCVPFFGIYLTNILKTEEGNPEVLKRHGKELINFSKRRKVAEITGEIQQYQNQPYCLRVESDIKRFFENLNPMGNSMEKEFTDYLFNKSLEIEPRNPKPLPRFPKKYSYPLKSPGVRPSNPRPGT

[2] = system: pERK in MKN1 cells; assay: pERK inhibition, In-Cell Western (LI-COR Odyssey), MKN1 cells; assay type: cell-based; conditions: MKN1 or H358 cells (table does not say which), 0.5-1 hour incubation, read-out: IC50 (nM), pERK inhibition
Outline: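 IC50 was fitted from % pERK inhibition, calculated as the GAPDH-normalised pERK signal of each well divided by the vehicle mean. Signal was imaged at 700 and 800 nm after fixation, methanol permeabilisation and dual antibody staining. Before fixation, MKN1 cells had received compound for about 0.5–1 h at 37 °C, top concentration 10 µM, nine 3-fold dilutions.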

## Cc1c(C#N)cccc1[C@@H](C)Nc1nnc(C)c2cnc(N3CCN(C(=O)[C@@H]4CCCN4)CC3)cc12 [Example 2-4, 3-((R)-1-((7-(4-(L-prolyl)piperazin-1-yl)-4-methylpyrido[3,4-d]pyridazin-1-yl)amino)ethyl)-2-methylbenzonitrile]
[1]
  Ki: 0.816 nM
[2]; Homo sapiens, MKN-1, Table B
  IC50: 933 nM

## Cc1c(C#N)cccc1[C@@H](C)Nc1nnc(C)c2cnc(N3CCN(C(=O)[C@@H]4CCN(C)C4)CC3)cc12 [Example 2-5, 2-methyl-3-((R)-1-((4-methyl-7-(4-((R)-1-methylpyrrolidine-3-carbonyl)piperazin-1-yl)pyrido[3,4-d]pyridazin-1-yl)amino)ethyl)benzonitrile]
[1]
  Ki: 0.743 nM
[2]; Homo sapiens, MKN-1, Table B
  IC50: 1050 nM

## Cc1c(C#N)cccc1[C@@H](C)Nc1nnc(C)c2cnc(N3CCN(C(=O)[C@H]4CCN(C)C4)CC3)cc12 [Example 2-6, 2-methyl-3-((R)-1-((4-methyl-7-(4-((S)-1-methylpyrrolidine-3-carbonyl)piperazin-1-yl)pyrido[3,4-d]pyridazin-1-yl)amino)ethyl)benzonitrile]
[1]
  Ki: 0.481 nM
[2]; Homo sapiens, MKN-1, Table B
  IC50: 869 nM

## Cc1c(C#N)cccc1[C@@H](C)Nc1nnc(C)c2cnc(N3CCN(C(=O)[C@@H]4CCCCN4C)CC3)cc12 [Example 2-7, 2-methyl-3-((R)-1-((4-methyl-7-(4-((S)-1-methylpiperidine-2-carbonyl)piperazin-1-yl)pyrido[3,4-d]pyridazin-1-yl)amino)ethyl)benzonitrile]
[1]
  Ki: 0.545 nM
[2]; Homo sapiens, MKN-1, Table B
  IC50: 139 nM

## Cc1c(C#N)cccc1[C@@H](C)Nc1nnc(C)c2cnc(N3CCN(C(=O)[C@H]4CCCCN4C)CC3)cc12 [Example 2-8, 2-methyl-3-((R)-1-((4-methyl-7-(4-((R)-1-methylpiperidine-2-carbonyl)piperazin-1-yl)pyrido[3,4-d]pyridazin-1-yl)amino)ethyl)benzonitrile]
[1]
  Ki: 0.67 nM
[2]; Homo sapiens, MKN-1, Table B
  IC50: 211 nM

## Cc1c(C#N)cccc1[C@@H](C)Nc1nnc(C)c2cnc(-c3ccc(CN(C)C)cc3)cc12 [Example 3-1, (R)-3-(1-((7-(4-((dimethylamino)methyl)phenyl)-4-methylpyrido[3,4-d]pyridazin-1-yl)amino)ethyl)-2-methylbenzonitrile]
[1]
  Ki: 6.11 nM
[2]; Homo sapiens, MKN-1, Table B
  IC50: 192 nM

## Cc1c(C#N)cccc1[C@@H](C)Nc1nnc(C)c2cnc(C3=CCN(C)CC3)cc12 [Example 3-2, (R)-2-methyl-3-(1-((4-methyl-7-(1-methyl-1,2,3,6-tetrahydropyridin-4-yl)pyrido[3,4-d]pyridazin-1-yl)amino)ethyl)benzonitrile]
[1]
  Ki: 11.5 nM
[2]; Homo sapiens, MKN-1, Table B
  IC50: 124 nM

## CCN1CCN(c2cc3c(N[C@H](C)c4cccc(C#N)c4C)nnc(C)c3cc2F)CC1 [Example 4-1, (R)-3-(1-((7-(4-ethylpiperazin-1-yl)-6-fluoro-4-methylphthalazin-1-yl)amino)ethyl)-2-methylbenzonitrile]
[1]
  Ki: 1.73 nM
[2]; Homo sapiens, MKN-1, Table B
  IC50: 82.7 nM

## Cc1c(C#N)cccc1[C@@H](C)Nc1nnc(C)c2cc(F)c(N3CC4(COC4)C3)cc12 [Example 4-2, (R)-3-(1-((6-fluoro-4-methyl-7-(2-oxa-6-azaspiro[3.3]heptan-6-yl)phthalazin-1-yl)amino)ethyl)-2-methylbenzonitrile]
[1]
  Ki: 5.85 nM
[2]; Homo sapiens, MKN-1, Table B
  IC50: 64 nM

## Cc1c(C#N)cccc1[C@@H](C)Nc1nnc(C)c2cc(F)c(N(C)C3CCN(C)CC3)cc12 [Example 4-3, (R)-3-(1-((6-fluoro-4-methyl-7-(methyl(1-methylpiperidin-4-yl)amino)phthalazin-1-yl)amino)ethyl)-2-methylbenzonitrile]
[1]
  Ki: 3.34 nM
[2]; Homo sapiens, MKN-1, Table B
  IC50: 150 nM

## Cc1c(C#N)cccc1[C@@H](C)Nc1nnc(C)c2cc(F)c(N3CCC34CN(C)C4)cc12 [Example 4-4, (R)-3-(1-((6-fluoro-4-methyl-7-(6-methyl-1,6-diazaspiro[3.3]heptan-1-yl)phthalazin-1-yl)amino)ethyl)-2-methylbenzonitrile]
[1]
  Ki: 0.892 nM
[2]; Homo sapiens, MKN-1, Table B
  IC50: 39.6 nM

## Cc1nnc(N[C@H](C)c2cccc(C(F)(F)F)c2F)c2cc(N3CCC34CN(C)C4)c(F)cc12 [Example 4-5, (R)-6-fluoro-N-(1-(2-fluoro-3-(trifluoromethyl)phenyl)ethyl)-4-methyl-7-(6-methyl-1,6-diazaspiro[3.3]heptan-1-yl)phthalazin-1-amine]
[1]
  Ki: 0.585 nM
[2]; Homo sapiens, MKN-1, Table B
  IC50: 103 nM

## Cc1nnc(N[C@H](C)c2cccc(C(F)(F)F)c2F)c2cc(N3CCOCC3)c(F)cc12 [Example 4-6, (R)-6-fluoro-N-(1-(2-fluoro-3-(trifluoromethyl)phenyl)ethyl)-4-methyl-7-morpholinophthalazin-1-amine]
[1]
  Ki: 12.3 nM
[2]; Homo sapiens, MKN-1, Table B
  IC50: 176 nM

## Cc1nnc(N[C@H](C)c2cccc(C(F)(F)F)c2F)c2cc(N3CCN(C)CC3)c(F)cc12 [Example 4-7, (R)-6-fluoro-N-(1-(2-fluoro-3-(trifluoromethyl)phenyl)ethyl)-4-methyl-7-(4-methylpiperazin-1-yl)phthalazin-1-amine]
[1]
  Ki: 1.06 nM
[2]; Homo sapiens, MKN-1, Table B
  IC50: 110 nM

## Cc1c(C#N)cccc1[C@@H](C)Nc1nnc(C)c2cc(F)c(N3CC4(CN(C)C4)C3)cc12 [Example 4-9, (R)-3-(1-((6-fluoro-4-methyl-7-(6-methyl-2,6-diazaspiro[3.3]heptan-2-yl)phthalazin-1-yl)amino)ethyl)-2-methylbenzonitrile]
[1]
  Ki: 0.343 nM
[2]; Homo sapiens, MKN-1, Table B
  IC50: 24.1 nM

## Cc1nnc(N[C@H](C)c2cccc(C(F)(F)F)c2F)c2cc(N3CC4(COC4)C3)c(F)cc12 [Example 4-10, (R)-6-fluoro-N-(1-(2-fluoro-3-(trifluoromethyl)phenyl)ethyl)-4-methyl-7-(2-oxa-6-azaspiro[3.3]heptan-6-yl)phthalazin-1-amine]
[1]
  Ki: 2.4 nM
[2]; Homo sapiens, MKN-1, Table B
  IC50: 141 nM

## Cc1c(C#N)cccc1[C@@H](C)Nc1nnc(C)c2cc(F)c(N3CCN4CCOC[C@@H]4C3)cc12 [Example 4-11, 3-((R)-1-((6-fluoro-7-((S)-hexahydropyrazino[2,1-c][1,4]oxazin-8(1H)-yl)-4-methylphthalazin-1-yl)amino)ethyl)-2-methylbenzonitrile]
[1]
  Ki: 5.77 nM
[2]; Homo sapiens, MKN-1, Table B
  IC50: 162 nM

## Cc1c(C#N)cccc1[C@@H](C)Nc1nnc(C)c2cc(F)c(N3C[C@@H]4C[C@H]3CO4)cc12 [Example 4-13, 3-((R)-1-((7-((1S,4S)-2-oxa-5-azabicyclo[2.2.1]heptan-5-yl)-6-fluoro-4-methylphthalazin-1-yl)amino)ethyl)-2-methylbenzonitrile]
[1]
  Ki: 16.1 nM
[2]; Homo sapiens, MKN-1, Table B
  IC50: 165 nM

## Cc1c(C#N)cccc1[C@@H](C)Nc1nnc(C)c2cc(F)c(N3C[C@@H]4C[C@H]3CN4C)cc12 [Example 4-14, 3-((R)-1-((6-fluoro-4-methyl-7-((1S,4S)-5-methyl-2,5-diazabicyclo[2.2.1]heptan-2-yl)phthalazin-1-yl)amino)ethyl)-2-methylbenzonitrile]
[1]
  Ki: 1.16 nM
[2]; Table B
  IC50: 41.6 nM

## Cc1c(C#N)cccc1[C@@H](C)Nc1nnc(C)c2cc(F)c(N3C[C@H]4C[C@@H]3CO4)cc12 [Example 4-15, 3-((R)-1-((7-((1R,4R)-2-oxa-5-azabicyclo[2.2.1]heptan-5-yl)-6-fluoro-4-methylphthalazin-1-yl)amino)ethyl)-2-methylbenzonitrile]
[1]
  Ki: 4.66 nM
[2]; Homo sapiens, MKN-1, Table B
  IC50: 37.8 nM

## Cc1nnc(N[C@H](C)c2cccc(C(C)(F)F)c2F)c2cc(N3CCN(C)CC3)c(F)cc12 [Example 4-16, (R)-N-(1-(3-(1,1-difluoroethyl)-2-fluorophenyl)ethyl)-6-fluoro-4-methyl-7-(4-methylpiperazin-1-yl)phthalazin-1-amine]
[1]
  Ki: 0.742 nM
[2]; Homo sapiens, MKN-1, Table B
  IC50: 52 nM

## COCCN(C)c1cc2c(N[C@H](C)c3cccc(C#N)c3C)nnc(C)c2cc1F [Example 4-17, (R)-3-(1-((6-fluoro-7-((2-methoxyethyl)(methyl)amino)-4-methylphthalazin-1-yl)amino)ethyl)-2-methylbenzonitrile]
[1]
  Ki: 9.16 nM
[2]; Homo sapiens, MKN-1, Table B
  IC50: 814 nM

## Cc1c(C#N)cccc1[C@@H](C)Nc1nnc(C)c2cc(F)c(N3CCN(C)C(C)(C)C3)cc12 [Example 4-18, (R)-3-(1-((6-fluoro-4-methyl-7-(3,3,4-trimethylpiperazin-1-yl)phthalazin-1-yl)amino)ethyl)-2-methylbenzonitrile]
[1]
  Ki: 1.42 nM
[2]; Homo sapiens, MKN-1, Table B
  IC50: 118 nM

## Cc1c(C#N)cccc1[C@@H](C)Nc1nnc(C)c2cc(F)c(N3CCS(=O)(=O)CC3)cc12 [Example 4-19, (R)-3-(1-((7-(1,1-dioxidothiomorpholino)-6-fluoro-4-methylphthalazin-1-yl)amino)ethyl)-2-methylbenzonitrile]
[1]
  Ki: 3.53 nM
[2]; Homo sapiens, MKN-1, Table B
  IC50: 551 nM

## Cc1c(C#N)cccc1[C@@H](C)Nc1nnc(C)c2cc(F)c(N3C[C@@H]4C[C@H]3CN4C)cc12 [Example 4-21, 3-((R)-1-((6-fluoro-4-methyl-7-((1S,4S)-5-methyl-2,5-diazabicyclo[2.2.1]heptan-2-yl)phthalazin-1-yl)amino)ethyl)-2-methylbenzonitrile]
[1]
  Ki: 2 nM
[2]; Table B
  IC50: 16 nM
